Data: US9695155B2, “Herbicidal substituted pyrimidinyloxy benzene compounds” (E. I. DU PONT DE NEMOURS AND COMPANY, priority 2013, dated 2017)

Legend:
[1] = test system: velvetleaf; assay: Test A preemergence; format: in vivo, Abutilon theophrasti
Procedure, shortened: (§1)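 Injury scores run from 0, no effect, to 100, complete control, judged by eye against untreated plants roughly 10 days after treatment. Chemicals carried a surfactant in a non-phytotoxic solvent and went onto loam–sand soil preemergence or onto one- to two-leaf seedlings postemergence.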

[2] = test system: oilseed rape; assay: Test C postemergence; format: in vivo, Brassica napus
Text: (§2) Seeds of plant species selected from blackgrass (Alopecurus myosuroides), Italian ryegrass (Lolium multiflorum), wheat, winter (winter wheat, Triticum aestivum), galium (catchweed bedstraw, Galium aparine), corn (Zea mays), large (Lg) crabgrass (Digitaria sanguinalis), giant foxtail (Setaria faberii), johnsongrass (Sorghum halepense), lambsquarters (Chenopodium album), morningglory (Ipomoea coccinea), yellow nutsedge (Cyperus esculentus), pigweed (Amaranthus retroflexus), ragweed (common ragweed, Ambrosia elatior), soybean (Glycine max), barnyardgrass (Echinochloa crus-galli), oilseed rape (Brassica napus), waterhemp (common waterhemp, Amaranthus rudis), kochia (Kochia scoparia), wild oat (Avena fatua), surinam grass (Brachiaria decumbens), foxtail, green (green foxtail, Setaria viridis), goosegrass (Eleusine indica), bromegrass, downy (downy bromegrass, Bromus tectorum), nightshade (eastern black nightshade, Solanum ptycanthum), cocklebur (common cocklebur, Xanthium strumarium), cupgrass, woolly (woolly cupgrass, Eriochloa villosa), bermudagrass (Cynodon dactylon), sunflower, (common oilseed sunflower, Helianthus annuus), Russian thistle (Salsola kali), and velvetleaf (Abutilon theophrasti) were planted into a blend of loam soil and sand and treated preemergence with test chemicals formulated in a non-phytotoxic solvent mixture which included a surfactant.
(§3) At the same time, plants selected from these crop and weed species and also barley, winter (winter barley, Hordeum vulgare), windgrass (Apera spica-venti), chickweed (common chickweed, Stellaria media), deadnettle (henbit deadnettle, Lamium amplexicaule), and canarygrass (littleseed canarygrass, Phalaris minor) were planted in pots containing Redi-Earth® planting medium (Scotts Company, 14111 Scottslawn Road, Marysville, Ohio 43041) comprising spaghnum peat moss, vermiculite, wetting agent and starter nutrients and treated with postemergence applications of test chemicals formulated in the same manner. Plants ranged in height from 2 to 18 cm (1- to 4-leaf stage) for postemergence treatments. Treated plants and controls were maintained in a greenhouse for 13 to 15 days, after which time all species were compared to controls and visually evaluated. Plant response ratings, summarized in Table C, are based on a scale of 0 to 100 where 0 is no effect and 100 is complete control. A dash (-) response means no test result.

[3] = test system: wheat, winter; assay: Test C postemergence; format: in vivo, Triticum aestivum
Procedure, shortened: (§4)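 Whole-plant greenhouse test with surfactant-containing solvent formulation, applied preemergence to sown loam–sand pots or postemergence to 2–18 cm plants. Scored by eye 13 to 15 days on, 0–100 scale.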

[4] = test system: velvetleaf; assay: Test C postemergence; format: in vivo, Abutilon theophrasti
Procedure, shortened: as §4

[5] = test system: wheat; assay: Test A postemergence; format: in vivo, Triticum aestivum
Procedure, shortened: as §1

[6] = test system: Italian ryegrass; assay: Test C postemergence; format: in vivo, Lolium multiflorum
Procedure, shortened: as §4

[7] = test system: corn; assay: Test A preemergence; format: in vivo, Zea mays
Procedure, shortened: as §1

[8] = test system: lambsquarters; assay: Test C postemergence; format: in vivo, Chenopodium album
Procedure, shortened: as §4

[9] = test system: galium; assay: Test C postemergence; format: in vivo, Galium aparine
Procedure, shortened: as §4

[10] = test system: barnyardgrass; assay: Test C postemergence; format: in vivo, Echinochloa crus-galli
Text: as §2, §3

[11] = test system: sedge, umbrella; assay: Test B flooded paddy test; format: in vivo, Cyperus difformis; conditions: Flood, 250 g ai/ha, 0 to 100 scale where 0 is no effect and 100 is complete control
Procedure, shortened: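 Flooded to 3 cm at the 2-leaf stage, pots received compound through the paddy water and were kept at that depth under greenhouse conditions. After 13–15 days, effect was rated by eye relative to controls, 0 = none and 100 = complete control.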

[12] = Postemergence, 31 g ai/ha, scale 0 to 100 (0 no effect, 100 complete control), 13 to 15 days
[13] = Postemergence, 62 g ai/ha, scale 0 to 100 (0 no effect, 100 complete control)
[14] = 1000 g ai/ha, 0 to 100 scale, 0 no effect, 100 complete control
[15] = 16 g ai/ha, postemergence, visual rating, scale 0 to 100 (0 no effect, 100 complete control), 13 to 15 days
[16] = 31 g ai/ha, postemergence, visual rating, scale 0 to 100 (0 no effect, 100 complete control), 13 to 15 days

Clc1cnc(Oc2cccc(Br)c2-n2cc(Br)cn2)nc1 [Compound 65]
Velvetleaf plant response rating ([1]; 1000 g ai/ha, 0 to 100 scale, 0 no effect, 100 complete control, approx. 10 days): 100 | Plant response rating (0 to 100), Oilseed Rape ([2]; 125 g ai/ha, postemergence): 90 | Plant response rating, Oilseed Rape [2, 12]: 25 | Plant response rating, Oilseed Rape [2, 13]: 60 | Plant response rating (0 to 100), Wheat ([3]; 125 g ai/ha, postemergence): 10 | Plant response rating, Wheat [3, 12]: 0 | Plant response rating, Wheat [3, 13]: 5 | Plant response rating (0 to 100), Velvetleaf ([4]; 125 g ai/ha, postemergence): 65 | Plant response rating, Velvetleaf [4, 12]: 50 | Plant response rating, Velvetleaf [4, 13]: 55 | Plant response rating, Wheat [5, 14]: 60 | Plant response rating (0 to 100), Ryegrass, Italian ([6]; 125 g ai/ha, postemergence): 5 | Plant response rating, Ryegrass, Italian [6, 12]: 0 | Plant response rating, Ryegrass, Italian [6, 13]: 0 | Plant response rating, Corn [7, 14]: 40 | Plant response rating (0 to 100), Lambsquarters ([8]; 125 g ai/ha, postemergence): 90 | Plant response rating, Lambsquarters [8, 12]: 80 | Plant response rating, Lambsquarters [8, 13]: 75 | Galium plant response rating [9, 15]: 100 | Plant response rating (0 to 100), Galium ([9]; 125 g ai/ha, postemergence): 98 | Plant response rating, Galium [9, 12]: 50 | Plant response rating, Galium [9, 13]: 85 | Barnyardgrass plant response rating [10, 15]: 5 | Plant response rating (0 to 100), Barnyardgrass ([10]; 125 g ai/ha, postemergence): 10 | Plant response rating, Barnyardgrass [10, 12]: 5 | Plant response rating, Barnyardgrass [10, 13]: 5 | Plant response rating, Sedge, Umbrella [11]: 95

Fc1cccc(Oc2ncc(Cl)cn2)c1-n1cc(Br)cn1 [Compound 178, 2-[2-(4-bromo-1H-pyrazol-1-yl)-3-fluorophenoxy]-5-chloropyrimidine]
Velvetleaf plant response rating (0 to 100 scale) ([1]; 125 g ai/ha): 80 | pest or weed control at 500 g/ha ([1]; Abutilon theophrasti, pre-emergence, 240 h, 500 g ai/ha, 0 to 100 scale where 0 is no effect and 100 is complete control, read-out: Velvetleaf plant response rating): 100% | Oilseed Rape plant response rating [2, 16]: 85 | plant injury at 16 g/ha ([2]; Brassica napus, post-emergence, 16 g ai/ha, postemergence, 0 is no effect, 100 is complete control, read-out: Plant response rating (0 to 100), Oilseed Rape): 70% | plant injury at 125 g/ha ([2]; Brassica napus, post-emergence, 125 g ai/ha, postemergence, visual rating, scale 0 to 100 (0 no effect, 100 complete control), read-out: Plant response rating, Oilseed Rape): 98% | plant injury at 62 g/ha ([2]; Brassica napus, post-emergence, Postemergence, 62 g ai/ha, scale 0 to 100 (0 no effect, 100 complete control), read-out: Plant response rating, Oilseed Rape): 90% | Wheat plant response rating [3, 16]: 0 | plant injury at 16 g/ha ([3]; Triticum aestivum, post-emergence, 16 g ai/ha, postemergence, 0 is no effect, 100 is complete control, read-out: Plant response rating (0 to 100), Wheat): 0% | plant injury at 125 g/ha ([3]; Triticum aestivum, post-emergence, 125 g ai/ha, postemergence, visual rating, scale 0 to 100 (0 no effect, 100 complete control), read-out: Plant response rating, Wheat): 0% | plant injury at 62 g/ha ([3]; Triticum aestivum, post-emergence, Postemergence, 62 g ai/ha, scale 0 to 100 (0 no effect, 100 complete control), read-out: Plant response rating, Wheat): 0% | Velvetleaf plant response rating [4, 16]: 70 | pest or weed control at 16 g/ha ([4]; Abutilon theophrasti, post-emergence, 16 g ai/ha, postemergence, 0 is no effect, 100 is complete control, read-out: Plant response rating (0 to 100), Velvetleaf): 50% | pest or weed control at 125 g/ha ([4]; Abutilon theophrasti, post-emergence, 125 g ai/ha, postemergence, visual rating, scale 0 to 100 (0 no effect, 100 complete control), read-out: Plant response rating, Velvetleaf): 100% | pest or weed control at 62 g/ha ([4]; Abutilon theophrasti, post-emergence, Postemergence, 62 g ai/ha, scale 0 to 100 (0 no effect, 100 complete control), read-out: Plant response rating, Velvetleaf): 85% | plant injury at 125 g/ha ([5]; Triticum aestivum, post-emergence, 240 h, 125 g ai/ha, 0 to 100 scale where 0 is no effect and 100 is complete control, read-out: Wheat plant response rating): 40% | plant injury at 500 g/ha ([5]; Triticum aestivum, post-emergence, 240 h, 500 g ai/ha, 0 to 100 scale where 0 is no effect and 100 is complete control, read-out: Plant response rating, Wheat): 80% | Ryegrass, Italian plant response rating [6, 16]: 0 | pest or weed control at 16 g/ha ([6]; Lolium multiflorum, post-emergence, 16 g ai/ha, postemergence, 0 is no effect, 100 is complete control, read-out: Plant response rating (0 to 100), Ryegrass, Italian): 0% | pest or weed control at 125 g/ha ([6]; Lolium multiflorum, post-emergence, 125 g ai/ha, postemergence, visual rating, scale 0 to 100 (0 no effect, 100 complete control), read-out: Plant response rating, Ryegrass, Italian): 20% | pest or weed control at 62 g/ha ([6]; Lolium multiflorum, post-emergence, Postemergence, 62 g ai/ha, scale 0 to 100 (0 no effect, 100 complete control), read-out: Plant response rating, Ryegrass, Italian): 0% | Corn plant response rating (crop injury, 0 = no effect, 100 = complete kill) at 125 g/ha ([7]; Zea mays, pre-emergence, 240 h, 125 g ai/ha, 0 to 100 scale where 0 is no effect and 100 is complete control): 0% | plant injury at 500 g/ha ([7]; Zea mays, pre-emergence, 240 h, 500 g ai/ha, 0 to 100 scale where 0 is no effect and 100 is complete control, read-out: Corn plant response rating): 30% | Lambsquarters plant response rating [8, 16]: 80 | pest or weed control at 16 g/ha ([8]; Chenopodium album, post-emergence, 16 g ai/ha, postemergence, 0 is no effect, 100 is complete control, read-out: Plant response rating (0 to 100), Lambsquarters): 70% | pest or weed control at 125 g/ha ([8]; Chenopodium album, post-emergence, 125 g ai/ha, postemergence, visual rating, scale 0 to 100 (0 no effect, 100 complete control), read-out: Plant response rating, Lambsquarters): 98% | pest or weed control at 62 g/ha ([8]; Chenopodium album, post-emergence, Postemergence, 62 g ai/ha, scale 0 to 100 (0 no effect, 100 complete control), read-out: Plant response rating, Lambsquarters): 85% | pest or weed control at 16 g/ha ([9]; Galium, post-emergence, 16 g ai/ha, postemergence, 0 is no effect, 100 is complete control, read-out: Plant response rating (0 to 100), Galium): 80% | pest or weed control at 31 g/ha ([9]; Galium, post-emergence, 31 g ai/ha, postemergence, visual rating, scale 0 to 100 (0 no effect, 100 complete control), 13 to 15 days, read-out: Galium plant response rating): 75% | pest or weed control at 125 g/ha ([9]; Galium, post-emergence, 125 g ai/ha, postemergence, visual rating, scale 0 to 100 (0 no effect, 100 complete control), read-out: Plant response rating, Galium): 98% | pest or weed control at 62 g/ha ([9]; Galium, post-emergence, Postemergence, 62 g ai/ha, scale 0 to 100 (0 no effect, 100 complete control), read-out: Plant response rating, Galium): 85% | pest or weed control at 16 g/ha ([10]; Echinochloa crus-galli, post-emergence, 16 g ai/ha, postemergence, 0 is no effect, 100 is complete control, read-out: Plant response rating (0 to 100), Barnyardgrass): 5% | pest or weed control at 31 g/ha ([10]; Echinochloa crus-galli, post-emergence, 31 g ai/ha, postemergence, visual rating, scale 0 to 100 (0 no effect, 100 complete control), 13 to 15 days, read-out: Barnyardgrass plant response rating): 5% | pest or weed control at 125 g/ha ([10]; Echinochloa crus-galli, post-emergence, 125 g ai/ha, postemergence, visual rating, scale 0 to 100 (0 no effect, 100 complete control), read-out: Plant response rating, Barnyardgrass): 10% | pest or weed control at 62 g/ha ([10]; Echinochloa crus-galli, post-emergence, Postemergence, 62 g ai/ha, scale 0 to 100 (0 no effect, 100 complete control), read-out: Plant response rating, Barnyardgrass): 5% | pest or weed control at 250 g/ha ([11]; Cyperus difformis, read-out: Plant response rating, Sedge, Umbrella): 0%
